Reference: US11382328B2, “Rapid drug discovery methods for pathogen inactivation” (priority 2019, dated 2022)

Tested on: E. coli strain W3110
Assay: Synergy assays: Biolog chemical sensitivity panels with Group IB metal, coefficient of drug interaction (CDI) from relative growth
Type: cell-based
Conditions: for CDI (coefficient of drug interaction), copper mixed with biocide: Copper (mM) section
[1] = 1st of 3 copper concentrations (value not shown), 1st of four biocide concentrations
[2] = 1st of 3 copper concentrations (value not shown), 2nd of four biocide concentrations
[3] = 1st of 3 copper concentrations (value not shown), 3rd of four biocide concentrations
[4] = 1st of 3 copper concentrations (value not shown), 4th of four biocide concentrations
[5] = 2nd of 3 copper concentrations (value not shown), 1st of four biocide concentrations
[6] = 2nd of 3 copper concentrations (value not shown), 2nd of four biocide concentrations
[7] = 2nd of 3 copper concentrations (value not shown), 3rd of four biocide concentrations
[8] = 2nd of 3 copper concentrations (value not shown), 4th of four biocide concentrations
[9] = 3rd of 3 copper concentrations (value not shown), 1st of four biocide concentrations
[10] = 3rd of 3 copper concentrations (value not shown), 2nd of four biocide concentrations
[11] = 3rd of 3 copper concentrations (value not shown), 3rd of four biocide concentrations
[12] = 3rd of 3 copper concentrations (value not shown), 4th of four biocide concentrations
[13] = Gold section of Table 5, first of three gold concentrations (μM, value not given), biocide concentration 1 of 4
[14] = Gold section of Table 5, first of three gold concentrations (μM, value not given), biocide concentration 2 of 4
[15] = Gold section of Table 5, second of three gold concentrations (μM, value not given), biocide concentration 2 of 4
[16] = Gold section of Table 5, second of three gold concentrations (μM, value not given), biocide concentration 3 of 4
[17] = Gold section of Table 5, second of three gold concentrations (μM, value not given), biocide concentration 4 of 4
[18] = Gold section of Table 5, third of three gold concentrations (μM, value not given), biocide concentration 2 of 4
[19] = Gold section of Table 5, third of three gold concentrations (μM, value not given), biocide concentration 3 of 4
[20] = Silver 0.5 μM, 1st of four biocide concentrations, E. coli
[21] = Silver 0.5 μM, 2nd of four biocide concentrations, E. coli
[22] = Silver 0.5 μM, 3rd of four biocide concentrations, E. coli
[23] = Silver 0.5 μM, 4th of four biocide concentrations, E. coli
[24] = Silver 1.0 μM, 1st of four biocide concentrations, E. coli
[25] = Silver 1.0 μM, 2nd of four biocide concentrations, E. coli
[26] = Silver 1.0 μM, 3rd of four biocide concentrations, E. coli
[27] = Silver 1.0 μM, 4th of four biocide concentrations, E. coli
[28] = Silver 5.0 μM, 1st of four biocide concentrations, E. coli
[29] = Silver 5.0 μM, 2nd of four biocide concentrations, E. coli
[30] = Silver 5.0 μM, 3rd of four biocide concentrations, E. coli
[31] = Silver 5.0 μM, 4th of four biocide concentrations, E. coli

phleomycin
CDI (coefficient of drug interaction), copper mixed with biocide [1]: 0.99
CDI (coefficient of drug interaction), copper mixed with biocide [2]: 1.27
CDI (coefficient of drug interaction), copper mixed with biocide [3]: Tox
CDI (coefficient of drug interaction), copper mixed with biocide [4]: Tox
CDI (coefficient of drug interaction), copper mixed with biocide [5]: 1.09
CDI (coefficient of drug interaction), copper mixed with biocide [6]: 1.19
CDI (coefficient of drug interaction), copper mixed with biocide [7]: Tox
CDI (coefficient of drug interaction), copper mixed with biocide [8]: Tox
CDI (coefficient of drug interaction), copper mixed with biocide [9]: 0.99
CDI (coefficient of drug interaction), copper mixed with biocide [10]: 0.96
CDI (coefficient of drug interaction), copper mixed with biocide [11]: Tox
CDI (coefficient of drug interaction), copper mixed with biocide [12]: Tox
CDI (coefficient of drug interaction) [13]: 0.98
CDI (coefficient of drug interaction) [14]: 1.06
CDI (coefficient of drug interaction) (Gold section of Table 5, first of three gold concentrations (μM, value not given), biocide concentration 4 of 4): 1.33
CDI (coefficient of drug interaction) [15]: 1.03
CDI (coefficient of drug interaction) [16]: 0.88
CDI (coefficient of drug interaction) [17]: 0.87
CDI (coefficient of drug interaction) (Gold section of Table 5, third of three gold concentrations (μM, value not given), biocide concentration 1 of 4): 0.99
CDI (coefficient of drug interaction) [18]: 0.96
CDI (coefficient of drug interaction) [19]: 0.92
CDI (coefficient of drug interaction) (Gold section of Table 5, third of three gold concentrations (μM, value not given), biocide concentration 4 of 4): 1.29
CDI (coefficient of drug interaction), silver + biocide [20]: 0.81
CDI (coefficient of drug interaction), silver + biocide [21]: 0.61
CDI (coefficient of drug interaction), silver + biocide [22]: 0.68
CDI (coefficient of drug interaction), silver + biocide [23]: Tox
CDI (coefficient of drug interaction), silver + biocide [24]: 0.89
CDI (coefficient of drug interaction), silver + biocide [25]: 0.81
CDI (coefficient of drug interaction), silver + biocide [26]: 0.81
CDI (coefficient of drug interaction), silver + biocide [27]: Tox
CDI (coefficient of drug interaction), silver + biocide [28]: 1.32
CDI (coefficient of drug interaction), silver + biocide [29]: 1.43
CDI (coefficient of drug interaction), silver + biocide [30]: 1.37
CDI (coefficient of drug interaction), silver + biocide [31]: Tox

c1ccc(-c2ccccn2)nc1 [2,2′-dipyridyl]
CDI (Copper 0.1 mM, biocide concentration 1 of 4): 0.76
CDI (Copper 0.1 mM, biocide concentration 2 of 4): Tox
CDI (Copper 0.1 mM, biocide concentration 3 of 4): Tox
CDI (Copper 0.1 mM, biocide concentration 4 of 4): Tox
CDI (Copper 0.5 mM, biocide concentration 1 of 4): 0.61
CDI (Copper 0.5 mM, biocide concentration 2 of 4): Tox
CDI (Copper 0.5 mM, biocide concentration 3 of 4): Tox
CDI (Copper 0.5 mM, biocide concentration 4 of 4): Tox
CDI (Copper 1.0 mM, biocide concentration 1 of 4): 0.76
CDI (Copper 1.0 mM, biocide concentration 2 of 4): Tox
CDI (Copper 1.0 mM, biocide concentration 3 of 4): Tox
CDI (Copper 1.0 mM, biocide concentration 4 of 4): Tox
CDI (coefficient of drug interaction) (Gold 5 μM, biocide concentration 2 of 4, E. coli): Tox
CDI (coefficient of drug interaction) (Gold 5 μM, biocide concentration 3 of 4, E. coli): Tox
CDI (coefficient of drug interaction) (Gold 5 μM, biocide concentration 4 of 4, E. coli): Tox
CDI (coefficient of drug interaction) (Gold 25 μM, biocide concentration 1 of 4, E. coli): 1.09
CDI (coefficient of drug interaction) (Gold 25 μM, biocide concentration 2 of 4, E. coli): Tox
CDI (coefficient of drug interaction) (Gold 25 μM, biocide concentration 3 of 4, E. coli): Tox
CDI (coefficient of drug interaction) (Gold 25 μM, biocide concentration 4 of 4, E. coli): Tox
CDI (coefficient of drug interaction), silver + biocide [20]: 1.55
CDI (coefficient of drug interaction), silver + biocide [21]: Tox
CDI (coefficient of drug interaction), silver + biocide [22]: Tox
CDI (coefficient of drug interaction), silver + biocide [23]: Tox
CDI (coefficient of drug interaction), silver + biocide [24]: 1.07
CDI (coefficient of drug interaction), silver + biocide [25]: Tox
CDI (coefficient of drug interaction), silver + biocide [26]: Tox
CDI (coefficient of drug interaction), silver + biocide [27]: Tox
CDI (coefficient of drug interaction), silver + biocide [28]: 1.21
CDI (coefficient of drug interaction), silver + biocide [29]: Tox
CDI (coefficient of drug interaction), silver + biocide [30]: Tox
CDI (coefficient of drug interaction), silver + biocide [31]: Tox
CDI (coefficient of drug interaction) ([…], biocide concentration 1 of 4, E. coli): 0.72
CDI (coefficient of drug interaction) ([…], biocide concentration 2 of 4, E. coli): Tox
CDI (coefficient of drug interaction) ([…], biocide concentration 3 of 4, E. coli): Tox
CDI (coefficient of drug interaction) ([…], biocide concentration 4 of 4, E. coli): Tox

gentamicin
CDI (coefficient of drug interaction), copper mixed with biocide [1]: 0.89
CDI (coefficient of drug interaction), copper mixed with biocide [2]: 0.87
CDI (coefficient of drug interaction), copper mixed with biocide [3]: 0.79
CDI (coefficient of drug interaction), copper mixed with biocide [4]: 0.86
CDI (coefficient of drug interaction), copper mixed with biocide [5]: 0.78
CDI (coefficient of drug interaction), copper mixed with biocide [6]: 0.80
CDI (coefficient of drug interaction), copper mixed with biocide [7]: 0.74
CDI (coefficient of drug interaction), copper mixed with biocide [8]: 1.54
CDI (coefficient of drug interaction), copper mixed with biocide [9]: 0.61
CDI (coefficient of drug interaction), copper mixed with biocide [10]: 0.59
CDI (coefficient of drug interaction), copper mixed with biocide [11]: 0.58
CDI (coefficient of drug interaction), copper mixed with biocide [12]: 0.61
CDI (coefficient of drug interaction) [13]: 0.97
CDI (coefficient of drug interaction) [14]: 1.00
CDI (coefficient of drug interaction) (Gold section of Table 5, first of three gold concentrations (μM, value not given), biocide concentration 3 of 4): 0.99
CDI (coefficient of drug interaction) (Gold section of Table 5, second of three gold concentrations (μM, value not given), biocide concentration 1 of 4): 0.97
CDI (coefficient of drug interaction) [15]: 0.99
CDI (coefficient of drug interaction) [16]: 1.00
CDI (coefficient of drug interaction) [17]: 1.00
CDI (coefficient of drug interaction) [18]: 0.97
CDI (coefficient of drug interaction) [19]: 1.00
CDI (Silver 0.5 μM, biocide concentration 1 of 4): 0.87
CDI (Silver 0.5 μM, biocide concentration 2 of 4): 0.86
CDI (Silver 0.5 μM, biocide concentration 3 of 4): 0.81
CDI (Silver 0.5 μM, biocide concentration 4 of 4): 0.79
CDI (Silver 1.0 μM, biocide concentration 2 of 4): 0.98
CDI (Silver 1.0 μM, biocide concentration 3 of 4): 0.42
CDI (Silver 1.0 μM, biocide concentration 4 of 4): 0.38
CDI (Silver 5.0 μM, biocide concentration 1 of 4): 1.00
CDI (Silver 5.0 μM, biocide concentration 2 of 4): 0.82
CDI (Silver 5.0 μM, biocide concentration 3 of 4): 0.74
CDI (Silver 5.0 μM, biocide concentration 4 of 4): 0.34
